Experimental data taken from ChEMBL document CHEMBL4311993, “Structure-activity relationship study of NPP1 inhibitors based on uracil-N1-(methoxy)ethyl-β-phosphate scaffold” (Eur J Med Chem, 2019).
Active and inactive are the calls of the source. The rule behind the calls is not given here.

What was measured:
[1] = target: P2Y purinoceptor 2 (Homo sapiens) (UniProt P41231); experiment: Agonist activity at human P2Y2 receptor expressed in AD293 cells assessed as induction of IP1 accumulation at 0.1 to 1 uM; format: functional, cell-based
[2] = target: P2Y purinoceptor 2 (Homo sapiens) (UniProt P41231); experiment: Agonist activity at human P2Y2 receptor expressed in AD293 cells assessed as inositol-1-phosphate accumulation at 100 uM; format: functional, cell-based
[3] = target: P2Y purinoceptor 2 (Homo sapiens) (UniProt P41231); experiment: Antagonist activity at human P2Y2 receptor expressed in AD293 cells assessed as inhibition of UTP-induced inositol-1-phosphate accumulation at 100 uM; format: functional, cell-based
[4] = target: T1, Ectonucleotide pyrophosphatase/phosphodiesterase family member 3 (Homo sapiens) (UniProt O14638); experiment: Inhibition of human NPP3 expressed in COS7 cell membranes at 100 uM using pNP-TMP as substrate preincubated for 3 mins followed by substrate addition and measured after 15 mins
T1 sequence (whole entry): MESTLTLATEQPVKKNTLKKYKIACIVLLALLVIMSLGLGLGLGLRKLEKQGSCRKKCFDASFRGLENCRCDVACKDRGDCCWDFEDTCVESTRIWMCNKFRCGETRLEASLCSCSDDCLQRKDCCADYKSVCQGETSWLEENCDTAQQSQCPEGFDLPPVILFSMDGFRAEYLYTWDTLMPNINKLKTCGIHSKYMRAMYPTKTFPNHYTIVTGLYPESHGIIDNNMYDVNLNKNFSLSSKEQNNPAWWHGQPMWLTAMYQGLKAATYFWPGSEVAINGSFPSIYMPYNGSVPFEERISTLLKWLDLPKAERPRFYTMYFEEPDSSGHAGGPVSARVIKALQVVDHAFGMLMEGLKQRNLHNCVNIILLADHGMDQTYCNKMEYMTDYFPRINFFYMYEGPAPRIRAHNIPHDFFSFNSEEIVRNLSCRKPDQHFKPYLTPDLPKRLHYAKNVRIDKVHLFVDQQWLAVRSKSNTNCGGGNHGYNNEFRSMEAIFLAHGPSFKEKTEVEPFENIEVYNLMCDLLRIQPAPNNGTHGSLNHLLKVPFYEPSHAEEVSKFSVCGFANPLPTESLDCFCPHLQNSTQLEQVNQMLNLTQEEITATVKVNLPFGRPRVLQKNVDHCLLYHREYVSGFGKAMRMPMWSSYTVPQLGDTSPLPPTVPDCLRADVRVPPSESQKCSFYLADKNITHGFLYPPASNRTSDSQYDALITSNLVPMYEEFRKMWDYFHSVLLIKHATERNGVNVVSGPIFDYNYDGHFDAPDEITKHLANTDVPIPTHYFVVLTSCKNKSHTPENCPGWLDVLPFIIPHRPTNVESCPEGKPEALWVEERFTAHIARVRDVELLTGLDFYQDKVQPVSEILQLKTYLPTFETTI

[5] = target: T2, Ectonucleotide pyrophosphatase/phosphodiesterase family member 1 (Homo sapiens) (UniProt P22413); experiment: Inhibition of human NPP1 expressed in COS7 cell membranes at 100 uM using pNP-TMP as substrate preincubated for 3 mins followed by substrate addition and measured after 15 mins relative to control
T2 sequence (whole entry): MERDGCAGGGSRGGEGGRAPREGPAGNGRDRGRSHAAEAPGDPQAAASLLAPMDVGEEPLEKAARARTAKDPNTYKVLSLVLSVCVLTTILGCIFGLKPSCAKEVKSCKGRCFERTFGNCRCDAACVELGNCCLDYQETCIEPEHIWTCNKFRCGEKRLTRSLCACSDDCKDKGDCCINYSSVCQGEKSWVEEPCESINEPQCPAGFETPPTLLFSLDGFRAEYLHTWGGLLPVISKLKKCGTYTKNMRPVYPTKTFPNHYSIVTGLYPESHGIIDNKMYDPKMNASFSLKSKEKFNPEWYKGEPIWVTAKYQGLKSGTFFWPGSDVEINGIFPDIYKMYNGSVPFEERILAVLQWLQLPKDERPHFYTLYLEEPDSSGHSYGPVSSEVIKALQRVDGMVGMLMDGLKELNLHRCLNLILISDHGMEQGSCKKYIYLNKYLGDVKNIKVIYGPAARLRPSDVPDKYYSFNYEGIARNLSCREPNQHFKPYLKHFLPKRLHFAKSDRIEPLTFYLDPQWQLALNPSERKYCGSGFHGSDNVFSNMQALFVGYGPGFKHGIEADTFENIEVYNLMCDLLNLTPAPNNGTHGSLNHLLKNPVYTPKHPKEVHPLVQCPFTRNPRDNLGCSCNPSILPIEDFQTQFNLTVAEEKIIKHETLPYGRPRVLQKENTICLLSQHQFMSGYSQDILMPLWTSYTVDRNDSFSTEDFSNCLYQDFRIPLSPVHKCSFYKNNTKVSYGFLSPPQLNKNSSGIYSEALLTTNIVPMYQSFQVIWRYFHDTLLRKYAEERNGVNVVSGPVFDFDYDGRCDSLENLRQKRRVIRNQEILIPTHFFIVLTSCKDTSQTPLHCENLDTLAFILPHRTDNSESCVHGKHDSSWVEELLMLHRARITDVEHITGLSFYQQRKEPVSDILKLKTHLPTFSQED

[6] = target: T2, Ectonucleotide pyrophosphatase/phosphodiesterase family member 1 (Homo sapiens); experiment: Inhibition of NPP-1 in human articular chondrocytes at 100 uM using p-Nph-5'-TMP as substrate after 3 hrs by […] relative to control; format: cell-based
Homo sapiens = organism: Homo sapiens; experiment: Inhibition of alkaline phosphatase in human primary chondrocyte at 100 uM using p-nitrophenyl phosphate as substrate after 30 mins by […] relative to control
[7] = Cytotoxicity against human primary chondrocytes at 100 uM after 24 hrs by XTT assay
[8] = target: T1, Ectonucleotide pyrophosphatase/phosphodiesterase family member 3 (Homo sapiens); experiment: Inhibition of human NPP3 expressed in COS7 cell membranes at 100 uM using pNP-TMP as substrate preincubated for 3 mins followed by substrate addition and measured after 15 mins relative to control
[9] = target: T3, Ectonucleotide pyrophosphatase/phosphodiesterase family member 1 (Homo sapiens, UniProt P22413); experiment: Inhibition of human NPP1 expressed in COS7 cell membranes using pNP-TMP as substrate preincubated for 3 mins followed by substrate addition and measured after 15 mins by Dixon plot analysis
T3 sequence (P22413 whole entry): T2 sequence (whole entry)

[10] = target: T2, Ectonucleotide pyrophosphatase/phosphodiesterase family member 1 (Homo sapiens); experiment: Inhibition of human NPP1 expressed in COS7 cell membranes at 100 uM using pNP-TMP as substrate preincubated for 3 mins followed by substrate addition and measured after 15 mins
[11] = target: P2Y purinoceptor 2 (Homo sapiens) (UniProt P41231); experiment: Partial agonist activity at human P2Y2 receptor expressed in AD293 cells assessed as inositol-1-phosphate accumulation at 100 uM; format: functional, cell-based

P2Y purinoceptor 2 (Homo sapiens), sequence (P41231 whole entry): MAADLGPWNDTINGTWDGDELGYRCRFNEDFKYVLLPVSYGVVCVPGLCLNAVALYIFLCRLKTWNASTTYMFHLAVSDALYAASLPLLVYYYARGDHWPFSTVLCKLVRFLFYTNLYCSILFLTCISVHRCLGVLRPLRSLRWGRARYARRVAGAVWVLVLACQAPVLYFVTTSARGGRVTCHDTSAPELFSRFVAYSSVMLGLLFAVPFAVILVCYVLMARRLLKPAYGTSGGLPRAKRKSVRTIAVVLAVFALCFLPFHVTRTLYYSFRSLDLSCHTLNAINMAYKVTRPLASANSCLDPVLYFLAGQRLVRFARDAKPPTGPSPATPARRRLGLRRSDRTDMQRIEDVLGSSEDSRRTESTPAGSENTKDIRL

| Structure (SMILES) | Activity [1] | inhibition [4] | Activity [11] | Activity [2] | inhibition [3] | inhibition [5] [%] | inhibition [6] [%] | inhibition (Homo sapiens) [%] | Activity [7] | inhibition [8] [%] | Ki [9] [nM] | inhibition [10] |
| --- | --- | --- | --- | --- | --- | --- | --- | --- | --- | --- | --- | --- |
| O=c1ccn(COCCOP(=S)(S)OP(=O)(O)C(Cl)(Cl)P(=O)(O)O)c(=O)[nH]1 (stereo not drawn) | – | – | – | inactive | inactive | 96 | 96 | < 10 | Non-Toxic | 21 | 730 | – |
| O=c1ccn(COCCOP(=S)(S)OP(=O)(O)CP(=O)(O)O)c(=O)[nH]1 (stereo not drawn) | – | – | – | inactive | inactive | 96 | – | < 10 | Non-Toxic | 24 | 940 | – |
| O=c1ccn(COCCO[PH](=O)O)c(=O)[nH]1 | inactive | inactive | – | inactive | inactive | – | – | – | – | – | – | inactive |

The next lines start with results.

| Activity [1] | inhibition [4] | Activity [11] | Structure (SMILES) | Activity [2] | inhibition [3] | inhibition [5] [%] | inhibition [6] [%] | inhibition (Homo sapiens) [%] | Activity [7] | inhibition [8] [%] | Ki [9] [nM] | inhibition [10] |
| --- | --- | --- | --- | --- | --- | --- | --- | --- | --- | --- | --- | --- |
| inactive | Active | – | O=c1ccn(COCCOP(=O)(O)C(Cl)(Cl)P(=O)(O)O)c(=O)[nH]1 | inactive | inactive | 51 | – | – | – | – | – | – |
| – | inactive | – | O=c1ccn(COCCOP(=O)(O)O)c(=O)[nH]1 | inactive | inactive | – | – | – | – | – | – | inactive |
| inactive | Active | Active | O=c1ccn(COCCOP(=O)(O)CP(=O)(O)O)c(=O)[nH]1 | – | – | 54 | – | – | – | – | – | – |
